Test: Human HepG2 cell viability assay in 384 well format
Type: toxicity, cell-based
Design: dose 125 nL, time 70.5 hour; cytotoxicity at 70.5 h: concentration not given beside the values
Settings: HepG2 cells, read-out: Inhibition

In order of rising cytotoxicity at 70.5 h:
1. Cc1nc(CN(C)CC2CCCN(CCc3ccc(Cl)cc3)C2)n(C)n1 (stereo not drawn)  -19.1%
2. O=C(c1cccnc1)N1CCSCC1  -16.5%
3. O=C(CCc1cscn1)N1CCCC1c1noc(C2CC2)n1 (stereo not drawn)  -15.3%
4. Cc1nn(CC(=O)N2CCC3(CN(C)C(=O)O3)C2)c(=O)c2ccccc12 (stereo not drawn)  -15%
5. CC(C)c1nc2n(n1)CC(Nc1ncnc3c1CCC3)CC2 (stereo not drawn)  -13.9%
6. O=C([C@H]1CCCO1)N1CCc2ncc(CN3CCOCC3)n2CC1  -11.9%
7. CC(C)c1cc(C(=O)N2CCCC(c3cc(=O)nc4n3CCC4)C2)no1 (stereo not drawn)  -11.3%
8. CN(C)C[C@@H]1CN(C2CCN(c3ccc(Cl)cc3)CC2)C[C@@H]1CO  -10.6%
9. COC[C@@]12CC[C@@H](N3CCOCC3)C[C@H]1CCN(c1ncccn1)C2  -10.2%
10. O=C(NCc1ccccc1Cn1cncn1)C1CCCCC1  -9.09%
11. O=C(CO)N1CCCC2(CCN(c3ccsc3)C2=O)C1 (stereo not drawn)  -8.82%
12. Fc1ccc(-c2cnc(CN3CCCC3Cn3cccn3)o2)cc1 (stereo not drawn)  -8.12%
13. O=C(CN1CCCC1c1nc(-c2ccccn2)no1)N1CCOCC1 (stereo not drawn)  -7.89%
14. Cc1cc(-c2nn3c(C4CCC4)nnc3s2)on1  -7.88%
15. O=C(c1coc2ccccc12)N1CCCC(O)(CO)CC1 (stereo not drawn)  -7.66%
16. O=C(CO)N1CCN(C(=O)c2coc3ccccc23)CC1  -7.53%
17. Cc1ccc2ncccc2c1CN1CC[C@H](N(C)C)[C@H](CCC(=O)O)C1  -7.41%
18. Cc1cc(C(F)(F)F)nc(CNc2nc(C)nc3c2cnn3C)n1  -7.38%
19. Cc1nc2n(n1)CC(NCc1nnc(C(C)(C)C)o1)CC2 (stereo not drawn)  -6.83%
20. Cc1cn2c(n1)CCC(NC(=O)Cn1cncn1)C2 (stereo not drawn)  -5.67%
21. Cc1ncc2c(n1)CCCC2NC(=O)c1ccc(Cn2cccn2)cc1 (stereo not drawn)  -5.6%
22. CCCn1nc(C)c(C(=O)N(C)[C@@H]2CC[C@@H](N3CCCC3)[C@@H]2O)c1C  -5.14%
23. COc1ccc(NC(=O)Cc2c(C)nc3c(c2C)c(=O)[nH]n3C)cn1  -4.63%
24. CC(=O)Nc1ccc(-c2ccccc2CCN)cc1  -4.46%
25. CCN1CC(C(=O)NCCn2cccc2)CC1=O (stereo not drawn)  -4.38%
26. Cc1ccccc1CCNC(=O)CN1CCCC(Cn2cncn2)C1 (stereo not drawn)  -3.82%
27. CN(CC(=O)N(C)C1CCCCC1)C1CCc2ccccc21 (stereo not drawn)  -3.54%
28. Cc1cnc(C(=O)N2CCCC(c3nccn3Cc3cscn3)C2)cn1 (stereo not drawn)  -3.23%
29. CCS(=O)(=O)N1CC[C@@H]2[C@H]1CCC(=O)N2CCOC  -3.05%
30. COc1ccccc1OC1CN(C(=O)Cc2c(C)nc(C)[nH]c2=O)C1  -2.42%
31. CC(C)c1noc(CCC(=O)NCC2CCOC2)n1 (stereo not drawn)  -2.41%
32. Cc1cccc(CN2CCOCC2c2[nH]ncc2C)n1 (stereo not drawn)  -2.39%
33. O=S(=O)(CCNC1CCc2ncnn2C1)c1ccccc1 (stereo not drawn)  -2.34%
34. O=C(NCCn1nc(C2CCNC2)c2cccnc21)c1ccccn1 (stereo not drawn)  -2.16%
35. O=C(Nc1ccccc1)c1ccc2c(c1)C1(CCCCC1)CN2  -2.11%
36. COC(=O)C1CCCN1C(=O)c1cc(CC(C)C)no1 (stereo not drawn)  -1.76%
37. CS(=O)(=O)NCc1cnc2n1CCN(Cc1ccccn1)CC2  -1.27%
38. CCc1nc(C2CCCN(C(=O)c3ccncc3)C2)no1 (stereo not drawn)  -1.21%
39. CC(C)C(=O)NCCCn1ncc2c(Cl)cccc21  -0.542%
40. COCCn1c2c(ccc1=O)CC(N)CC2 (stereo not drawn)  -0.36%
41. OC1(CN2CCOC(CNc3cccnn3)C2)CCCCC1 (stereo not drawn)  0.208%
42. O=C1C[C@H]2CC[C@@H](CN1)N2C1CCSCC1  0.716%
43. OC1(c2cn(CC3CCN(C4CCSC4)CC3)nn2)CCCC1 (stereo not drawn)  1.14%
44. CC(=O)Nc1ccc(CNCc2cccnc2N(C)C)cc1  1.4%
45. CS(=O)(=O)N1CCC(NC(=O)COc2cccc(Cl)c2)CC1  1.43%
46. CCOCC(=O)N1CCC(c2nccn2C)CC1  2.76%
47. NC(=O)C1CCN(C(=O)CCn2c(C(F)(F)F)cc3cccnc32)CC1  3.01%
48. c1cc2c(cc1CN(Cc1nc(C3CC3)no1)C1CCCC1)OCO2  6.65%
49. Fc1ccc(CNCCn2cccn2)c(Cl)c1  6.68%
50. CC(=O)N1CCC(=O)N(C2CCCC2)Cc2ccccc21  7.97%
51. CCCn1ccnc1CN1CCCC1c1cccc(-n2ccnc2)n1 (stereo not drawn)  11%
52. Cc1cc2cccc(C(=O)N3CC[C@](C)(O)[C@H](C)C3)c2o1  14.5%
53. O=C(Nc1ccc(N2CCCC2)nc1)N1CCc2sccc2C1  15.9%
54. O=C(Nc1ccccc1OCCc1ccccn1)NC1CCOCC1  18.2%
55. O=C1CC[C@H]2[C@H](CCN2C(=O)c2ccc[nH]2)N1CCN1CCOCC1  19.1%
56. CC(C)CN1Cc2nc(N3CCCC3)ncc2C1=O  19.8%
57. CCN1CCCC1CNC(=O)Cc1c(C)n[nH]c1-c1ccc(F)cc1 (stereo not drawn)  22.5%
58. COC(=O)[C@@H]1C[C@H](NC(=O)Cn2c(=O)cc(C)c3ccccc32)CN1C  26.6%

Reference: ChEMBL document CHEMBL3507680, “University of Dundee, Gates Library screen for HepG2 cell viability”
